From article PMC6327987, “Synthesis and biological evaluation of novel N^9-heterobivalent β-carbolines as angiogenesis inhibitors” (Journal of Enzyme Inhibition and Medicinal Chemistry, 2019)
Where two headings read alike, the source gives them in different places.

Key:
[1] = test system: MCF-7; assay: MTT cytotoxicity, breast carcinoma cells; format: cell-based; conditions: MTT assay, breast carcinoma MCF-7, mean ± SD of at least three determinations
Protocol: (§1) Target compounds were assayed by the MTT method for cytotoxic activity, as described previously. The panel of cell lines included gastric carcinoma (BGC-823), liver carcinoma (HepG2), breast carcinoma (MCF-7), colon carcinoma (HT-29), esophageal carcinoma (Eca-109), and Lewis lung carcinoma (LLC). Growth inhibition rates were calculated with the following equitation: Inhibition ratio (%)= ODcompd−ODblank/ODDMSO−ODblank×100% . Half maximal inhibitory concentration (IC50) of each compound was calculated using software Graph-Pad Prism (version 6.0).
(§2) All the 24 novel synthesized N^9-heterobivalent β-carbolines (5a-x) were screened for their in vitro cytotoxic activities against six different cancer cell lines, namely BGC-823 (gastric carcinoma), HepG2 (liver carcinoma), MCF-7 (breast carcinoma), HT-29 (colon carcinoma), Eca-109 (esophageal carcinoma) and LLC (Lewis lung carcinoma). The IC50 values were the average of at least three independent experiments.

[2] = test system: Eca-109; assay: MTT cytotoxicity, esophageal carcinoma cells; format: cell-based; conditions: esophageal carcinoma Eca-109, mean ± SD of at least three determinations
Protocol: as §1, §2

[3] = test system: LLC; assay: MTT cytotoxicity, Lewis lung carcinoma cells; format: cell-based; conditions: MTT assay, mean ± SD of at least three determinations
Protocol: as §1, §2

[4] = test system: HT-29; assay: MTT cytotoxicity, colon carcinoma cells; format: cell-based; conditions: MTT assay, colon carcinoma HT-29, mean ± SD of at least three determinations
Protocol: as §1, §2

[5] = test system: HepG2; assay: MTT cytotoxicity, liver carcinoma cells; format: cell-based; conditions: MTT assay, liver carcinoma HepG2, mean ± SD of at least three determinations
Protocol: as §1, §2

[6] = test system: BGC-823; assay: MTT cytotoxicity, gastric carcinoma cells; format: cell-based; conditions: MTT assay, gastric carcinoma BGC-823, mean ± SD of at least three determinations
Protocol: as §1, §2

[7] = Homo sapiens, ECa-109, MTT assay

| Structure (SMILES) | melting point | IC50 ([1]; Homo sapiens, MCF7) | IC50 [2, 7] | IC50 ([3]; Lewis lung carcinoma) | IC50 ([4]; Homo sapiens) | IC50 ([5]; Homo sapiens) | IC50 ([6]; Homo sapiens) | IC50 ([2]; MTT assay) | IC50 [3] | IC50 ([1]; read-out: IC50 (μM) ±SD MCF7) | IC50 [4] | IC50 [5] | IC50 [6] |
| --- | --- | --- | --- | --- | --- | --- | --- | --- | --- | --- | --- | --- | --- |
| COc1cc(-c2nccc3c4ccccc4n(CCCCn4c5ccccc5c5ccnc(-c6cccnc6)c54)c23)cc(OC)c1OC [Compound 5m, 1–(3,4,5-trimethoxyphenyl)-9–(4-(1–(3-pyridyl)-β-carboline-9-yl)butyl)-β-carboline] | 231 to 232.3 °C | > 100 µM | 70.9 ± 8.4 µM | > 100 µM | > 100 µM | 85.1 ± 11.6 µM | > 100 µM |  |  |  |  |  |  |
| COc1ccc(-c2nccc3c4ccccc4n(CCCCn4c5ccccc5c5ccnc(-c6cccnc6)c54)c23)cc1OC [Compound 5l, 1–(3,4-dimethoxyphenyl)-9–(4-(1–(3-pyridyl)-β-carboline-9-yl)butyl)-β-carboline] | 239.8 to 240.5 °C | > 100 µM | 93.2 ± 7.1 µM | 46.8 ± 6.4 µM | 91.1 ± 10.6 µM | 79.5 ± 12.3 µM | > 100 µM |  |  |  |  |  |  |
| c1cncc(-c2nccc3c4ccccc4n(CCCCn4c5ccccc5c5ccncc54)c23)c1 [Compound 5a, 1–(3-pyridyl)-9–(4-(β-carboline-9-yl)butyl)-β-carboline] | 173.3 to 175.1 °C | > 100 µM | > 100 µM | > 100 µM | > 100 µM | 39.1 ± 5.4 µM | > 100 µM |  |  |  |  |  |  |
| COc1ccc(-c2nccc3c4ccccc4n(CCCCn4c5ccccc5c5ccnc(-c6cccnc6)c54)c23)cc1 [Compound 5k, 1–(4-methoxyphenyl)-9–(4-(1–(3-pyridyl)-β-carboline-9-yl)butyl)-β-carboline] | 241.2 to 242.4 °C | > 100 µM | > 100 µM | > 100 µM | > 100 µM | > 100 µM | > 100 µM |  |  |  |  |  |  |
| c1csc(-c2nccc3c4ccccc4n(CCCCn4c5ccccc5c5ccncc54)c23)c1 [Compound 5e, 1–(2-thienyl)-9–(4-(β-carboline-9-yl)butyl)-β-carboline] | 141.6 to 143.1 °C | > 100 µM | > 100 µM | 32.3 ± 4.5 µM | 18.1 ± 3.6 µM | > 100 µM | > 100 µM |  |  |  |  |  |  |
| Cc1nccc2c3ccccc3n(CCCCCn3c4ccccc4c4ccnc(-c5ccccc5Cl)c43)c12 [Compound 5j, 1–(2-chlorophenyl)-9–(5-(1-methyl-β-carboline-9-yl)pentyl)-β-carboline] | 169.1 to 171.2 °C | 46.8 ± 3.7 µM | < 20 µM | < 20 µM | 24.1 ± 2.2 µM | > 100 µM | > 100 µM | 18.6 ± 2.1 µM | 16.6 ± 3.1 µM |  |  |  |  |
| Cc1nccc2c3ccccc3n(CCCCCCn3c4ccccc4c4ccnc(-c5cccnc5)c43)c12 [Compound 5d, 1–(3-pyridyl)-9–(6-(1-methyl-β-carboline-9-yl)hexyl)-β-carboline] | 141.3 to 142.9 °C | > 100 µM | < 20 µM | < 20 µM | > 100 µM | > 100 µM | > 100 µM | 18.9 ± 3.1 µM | 14.5 ± 0.9 µM |  |  |  |  |
| Cc1nccc2c3ccccc3n(CCCCn3c4ccccc4c4ccnc(-c5cccs5)c43)c12 [Compound 5f, 1–(2-thienyl)-9–(4-(1-methyl-β-carboline-9-yl)butyl)-β-carboline] | 214.8 to 216 °C | 46.6 ± 4.8 µM | 64.1 ± 7.6 µM |  | 56.1 ± 4.2 µM | > 100 µM | 38.8 ± 2.9 µM |  |  |  |  |  |  |
| N.N.[Cl][Pt][Cl] [Cisplatin, reference compound] |  |  |  |  |  |  |  | 8.9 ± 0.6 µM | 7.6 ± 0.4 µM | 12.4 ± 0.7 µM | 26.8 ± 1.4 µM | 14.8 ± 0.4 µM | 11.6 ± 0.7 µM |

More lines, main results first:

| melting point | Structure (SMILES) | IC50 ([1]; Homo sapiens, MCF7) | IC50 [2, 7] | IC50 ([3]; Lewis lung carcinoma) | IC50 ([4]; Homo sapiens) | IC50 ([5]; Homo sapiens) | IC50 ([6]; Homo sapiens) | IC50 ([2]; MTT assay) | IC50 [3] | IC50 ([1]; read-out: IC50 (μM) ±SD MCF7) | IC50 [4] | IC50 [5] | IC50 [6] |
| --- | --- | --- | --- | --- | --- | --- | --- | --- | --- | --- | --- | --- | --- |
| 196.1 to 197.4 °C | COc1ccc2c3ccnc(C)c3n(CCCCCn3c4ccccc4c4ccnc(-c5cccs5)c43)c2c1 [Compound 5x, 7-methoxy-1-methyl-9–(5-(1–(2-thienyl)-β-carboline-9-yl)pentyl)-β-carboline] | 41.6 ± 5.3 µM | 46.7 ± 6.9 µM | 12.2 ± 3.7 µM | > 100 µM | > 100 µM | > 100 µM |  |  |  |  |  |  |
| 163.8 to 164.5 °C | COc1ccc2c3ccnc(C)c3n(CCCCn3c4ccccc4c4ccnc(-c5cccnc5)c43)c2c1 [Compound 5u, 7-methoxy-1-methyl-9–(4-(1–(3-pyridyl)-β-carboline-9-yl)butyl)-β-carboline] | 23.9 ± 0.7 µM | 25.2 ± 5.5 µM | 12.2 ± 2.3 µM | 15.1 ± 3.1 µM | 26.8 ± 2.8 µM | 39.1 ± 2.4 µM |  |  |  |  |  |  |
| 232.5 to 233.3 °C | COc1ccc(-c2nccc3c4ccccc4n(CCCCn4c5ccccc5c5ccnc(-c6cccs6)c54)c23)cc1 [Compound 5o, 1–(4-methoxyphenyl)-9–(4-(1–(2-thienyl)-β-carboline-9-yl)butyl)-β-carboline] | > 100 µM | > 100 µM | 96.8 ± 9.8 µM | > 100 µM | > 100 µM | > 100 µM |  |  |  |  |  |  |
| 217.2 to 218.4 °C | COc1ccc(-c2nccc3c4ccccc4n(CCCCn4c5ccccc5c5ccnc(-c6cccs6)c54)c23)cc1OC [Compound 5p, 1–(3,4-dimethoxyphenyl)-9–(4-(1–(2-thienyl)-β-carboline-9-yl)butyl)-β-carboline] | > 100 µM | > 100 µM | > 100 µM | > 100 µM | > 100 µM | > 100 µM |  |  |  |  |  |  |
| 183.6 to 184.9 °C | COc1ccc2c3ccnc(C)c3n(CCCCCn3c4ccccc4c4ccnc(-c5cccnc5)c43)c2c1 [Compound 5v, 7-methoxy-1-methyl-9–(5-(1–(3-pyridyl)-β-carboline-9-yl)pentyl)-β-carboline] | 18.7 ± 0.5 µM | 13.2 ± 3.6 µM | 11.8 ± 1.8 µM | 13.5 ± 2.2 µM | 31.1 ± 3.4 µM | 23.2 ± 1.5 µM |  |  |  |  |  |  |
| 177.6 to 178.9 °C | Clc1ccccc1-c1nccc2c3ccccc3n(CCCCn3c4ccccc4c4ccnc(-c5cccnc5)c43)c12 [Compound 5n, 1–(2-chlorophenyl)-9–(4-(1–(3-pyridyl)-β-carboline-9-yl)butyl)-β-carboline] | 86.9 ± 15.3 µM | > 100 µM | > 100 µM | 72.2 ± 5.2 µM | > 100 µM | > 100 µM |  |  |  |  |  |  |
| 226.5 to 227.8 °C | COc1cc(-c2nccc3c4ccccc4n(CCCCn4c5ccccc5c5ccnc(-c6cccs6)c54)c23)cc(OC)c1OC [Compound 5q, 1–(3,4,5-trimethoxyphenyl)-9–(4-(1–(2-thienyl)-β-carboline-9-yl)butyl)-β-carboline] | > 100 µM | > 100 µM | > 100 µM | > 100 µM | > 100 µM | > 100 µM |  |  |  |  |  |  |
| 225.4 to 227.2 °C | Clc1ccccc1-c1nccc2c3ccccc3n(CCCCn3c4ccccc4c4ccnc(-c5cccs5)c43)c12 [Compound 5r, 1–(2-chlorophenyl)-9–(4-(1–(2-thienyl)-β-carboline-9-yl)butyl)-β-carboline] | 60.7 ± 4.8 µM | 96.7 ± 11.9 µM | > 100 µM | 96.2 ± 5.1 µM | > 100 µM | > 100 µM |  |  |  |  |  |  |
| 188.7 to 189.4 °C | COc1ccc2c3ccnc(C)c3n(CCCCn3c4ccccc4c4ccnc(C)c43)c2c1 [Compound 5s, 7-methoxy-1-methyl-9–(4-(1-methyl-β-carboline-9-yl)butyl)-β-carboline] | 36.4 ± 2.1 µM | 11.3 ± 2.7 µM | 6.2 ± 0.6 µM | 11.1 ± 0.8 µM | 37.6 ± 5.8 µM | 17.9 ± 1.1 µM |  |  |  |  |  |  |
